Laboratory results taken from patent US20160296606A1, “Cellular Factor-Containing Solution Compositions for the Treatment of Rhinovirus Infection and Symptoms” (Noveome Biotherapeutics, Inc., priority 2015, published 2016).
Structures can show the parent of a compound that is named as a salt.

Experiments:
[1] = system: vascular permeability (histamine-induced); assay: Evans Blue assay of vascular permeability, histamine with ACCS or CPM (Example 6); assay type: in vivo, rats (Sprague-Dawley); conditions: 198 μg total protein ACCS or 50 μg CPM
Description: Method: […] The Evan's Blue dye binds to albumin and other plasma proteins present in the blood and circulates throughout the animal's entire vascular system. Increased vascular permeability results in extravasation from blood vessels and capillaries of the Evans Blue dye bound to plasma protein. […] After approximately 20 min, the animals were sacrificed, and an area of skin that included the entire injection site was removed with punch biopsy.

[2] = system: vascular permeability (histamine-induced); assay: Miles assay, Evans Blue dye extravasation after intradermal injection (Example 5); assay type: in vivo, rat; conditions: 1 μg histamine alone intradermally (inducer of vascular permeability)
Description: Method: One hundred μL of 5% Evans Blue Dye was administered intravenously to an approximately 260 gram male rat via a jugular vein catheter. The Evans Blue dye binds to albumin and other proteins present in the blood and circulates throughout the animal's entire vascular system. One hundred μL of various test articles were then injected intradermally on the flank of the animal forming a small vesicular bleb of the injected article under on the skin surface. Changes in local vascular permeability were observed by the development of a blue spot corresponding to the Evans Blue bound protein extravasate at the injection site. Results were recorded qualitatively through photograph. The changes in Evans Blue Dye extravasation was quantitatively measured by the excision of the blue skin sample after animal sacrifice and placing the excised skin sample in 1 mL of formamide in order to extract the dye. The dye was extracted over 48 hours at 60° C. The extracted dye was then read on a plate reader for absorbance measurement at 630 nm.
The local extravasation of protein-bound Evans Blue Dye at the site of injection is correlated with the increase in vascular permeability. […] Saline and ACCS were also injected alone to serve as negative controls.

[3] = system: irritant (TPA) skin inflammation; assay: Intralesional injection in irritant TPA skin (ear) inflammation in mice; assay type: in vivo
Description: Method: Intralesional injection into the ear was given once daily to the following groups: 1. TPA+intralesional control; 2. TPA+intralesional ACCS; 3. TPA+intralesional kenalog (10 mg/ml) (a potent intralesional corticosteroid); 4. ACCS intralesional injection alone; 5. Saline sham injections to the normal untreated ear. The endpoints for the study were ear thickness and ear weight at the end of the experiment. The thicker the ear and the increased weight gain correlates with the degree of inflammation.

With `CN(C)CCC(c1ccc(Cl)cc1)c1ccccn1` (centres unmarked) [CPM, chlorpheniramine maleate] the “ABS 630 nm/μg tissue” value ([1]; histamine dose 0.05 μg intradermal) was 0.07 ABS 630 nm/μg tissue, the “ABS 630 nm/μg tissue” value ([1]; histamine dose 0.5 μg intradermal) was 0.10 ABS 630 nm/μg tissue and the “ABS 630 nm/μg tissue” value ([1]; histamine dose 1 μg intradermal) was 0.10 ABS 630 nm/μg tissue. For the same compound, the “ABS 630 nm/μg tissue” value ([1]; histamine dose 3 μg intradermal) was 0.11 ABS 630 nm/μg tissue.

`NCCc1c[nH]cn1` [histamine] was tested, and the “OD 630 absorbance of extracted Evans Blue dye from tissue samples” value [2] was 0.495 OD units.

`CC1(C)O[C@@H]2C[C@H]3[C@@H]4CCC5=CC(=O)C=C[C@]5(C)[C@@]4(F)[C@@H](O)C[C@]3(C)[C@]2(C(=O)CO)O1` [kenalog] was tested, and the injection site finding ([3]; intralesional injection 10 mg/ml into mouse ear) was “induced a hematoma at the site of injection”, the “inflammation induced by TPA (ear thickness)” value ([3]; intralesional injection into the ear once daily, vs TPA+control) was “not a substantial difference in ear thickness” and the ear weight ([3]; intralesional injection once daily, compared with TPA+control) was “no difference in ear weight”.
